Experimental data reported in publication PMC4180945 (Tetrahedron, 2014).

Experiments:
[1] = target: bovine serum albumin (BSA) (Bos taurus, UniProt P02769); test: Selectivity binding to arbitrarily selected protein: BSA
[2] = target: T1, GST-SHD SH2 domain fusion protein (Homo sapiens, UniProt Q96IW2); test: Selectivity binding to arbitrarily selected protein: GST-SHD SH2
T1 sequence (Q96IW2 240-335 limits assumed): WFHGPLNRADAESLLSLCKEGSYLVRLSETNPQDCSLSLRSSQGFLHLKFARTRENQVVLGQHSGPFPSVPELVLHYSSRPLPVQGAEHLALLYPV

[3] = target: maltose-binding protein-XIAP BIR3 domain fusion (MBP-BIR3) (Homo sapiens, UniProt P98170); test: Selectivity binding to arbitrarily selected protein: MBP-BIR3
Sequence of maltose-binding protein-XIAP BIR3 domain fusion (MBP-BIR3) (P98170 241-356 limits assumed): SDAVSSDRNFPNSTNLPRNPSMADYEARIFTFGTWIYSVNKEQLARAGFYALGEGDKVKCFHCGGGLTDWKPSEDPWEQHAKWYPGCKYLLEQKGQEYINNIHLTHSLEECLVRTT

[4] = target: T2, protein-tyrosine phosphatase 1B (PTP1B) (Homo sapiens, UniProt P18031); test: Selectivity binding to arbitrarily selected protein: PTP1B
T2 sequence (P18031 1-435): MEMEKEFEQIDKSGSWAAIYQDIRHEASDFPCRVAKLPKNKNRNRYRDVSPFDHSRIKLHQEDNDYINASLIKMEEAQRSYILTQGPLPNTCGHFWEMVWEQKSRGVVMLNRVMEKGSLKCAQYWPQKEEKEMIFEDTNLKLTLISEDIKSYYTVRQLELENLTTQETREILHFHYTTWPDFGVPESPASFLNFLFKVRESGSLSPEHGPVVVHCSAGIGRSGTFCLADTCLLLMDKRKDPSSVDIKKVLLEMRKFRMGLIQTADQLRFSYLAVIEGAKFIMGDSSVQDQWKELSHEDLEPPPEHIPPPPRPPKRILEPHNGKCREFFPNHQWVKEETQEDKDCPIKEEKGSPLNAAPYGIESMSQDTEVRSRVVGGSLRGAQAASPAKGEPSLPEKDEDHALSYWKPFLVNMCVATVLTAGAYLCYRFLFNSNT

[5] = target: GST-FKBP12 fusion protein (Homo sapiens, UniProt P62942); test: Selectivity binding to arbitrarily selected protein: GST-FKBP12
Sequence of GST-FKBP12 fusion protein (P62942 whole entry, the tested form may be a part): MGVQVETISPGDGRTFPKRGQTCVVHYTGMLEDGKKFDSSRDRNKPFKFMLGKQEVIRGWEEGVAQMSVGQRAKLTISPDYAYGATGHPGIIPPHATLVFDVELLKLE

Sequence of bovine serum albumin (BSA) (P02769 25-607): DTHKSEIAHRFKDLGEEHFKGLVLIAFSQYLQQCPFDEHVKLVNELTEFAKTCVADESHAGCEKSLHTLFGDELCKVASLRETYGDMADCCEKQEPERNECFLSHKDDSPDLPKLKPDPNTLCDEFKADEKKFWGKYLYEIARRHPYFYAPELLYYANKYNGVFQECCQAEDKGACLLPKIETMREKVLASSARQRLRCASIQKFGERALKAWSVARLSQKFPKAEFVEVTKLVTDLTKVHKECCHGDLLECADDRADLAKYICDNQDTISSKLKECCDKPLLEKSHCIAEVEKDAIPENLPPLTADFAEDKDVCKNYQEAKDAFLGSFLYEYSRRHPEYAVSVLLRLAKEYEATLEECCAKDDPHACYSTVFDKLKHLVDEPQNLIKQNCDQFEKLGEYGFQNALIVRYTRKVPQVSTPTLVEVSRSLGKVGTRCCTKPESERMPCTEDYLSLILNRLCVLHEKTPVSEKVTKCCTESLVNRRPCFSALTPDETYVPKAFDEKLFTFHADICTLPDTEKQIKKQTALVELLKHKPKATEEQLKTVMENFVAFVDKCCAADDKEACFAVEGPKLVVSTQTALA

For “Trp-phe-Asp-Lys-phe-asn-His-Dap [Peptide 38]”, the “Fold higher KD for BSA than that of K-Ras” value [1] was 47-120 fold, the “Fold higher KD for GST-SHD SH2 than that of K-Ras” value [2] was 47-120 fold and the “Fold higher KD for MBP-BIR3 than that of K-Ras” value [3] was 47-120 fold. The “Binding to PTP1B” value [4] was “no binding” and the “Binding to GST-FKBP12” value [5] was “no binding”.
